The results in this text go back to patent US20220259252A1, “4'-ETHYNYL-2'-DEOXYADENOSINE DERIVATIVES AND THEIR USE IN HIV THERAPY” (priority 2019, published 2022).

Experiment [1] deals with HIV pseudotyped virus (NL4-3 provirus, luciferase reporter), M184V, in U373 cells expressing human CD4 and CXCR4 or CCR5. The experiment is classed as cell-based. The conditions noted are these: PSV assay, luciferase signal after 3 days.
The test system of experiment [2] is HIV pseudotyped virus (NL4-3 provirus, luciferase reporter), WT, in U373 cells expressing human CD4 and CXCR4 or CCR5. The experiment can be described thus: Pseudotyped virus (PSV) assay, WT. The conditions noted are these: Human immunodeficiency virus 1, NL43, U373 MG, 72 h, read-out: WT IC50.
From the text: A pseudotyped virus assay (PSV) was used to assess the potency of the HIV inhibitor. Replication defective virus was produced by co-transfection of a plasmid containing an NL4-3 provirus [containing a mutation in the envelope open reading frame (ORF) and a luciferase reporter gene replacing the nef ORF] and a CMV-promoter expression plasmid containing an ORF for various HIV gp160 envelope clones. The harvested virus was stored at −80 C in small aliquots and the titer of the virus measured to produce a robust signal for antiviral assays.
The PSV assay was performed by using U373 cells stably transformed to express human CD4, the primary receptor for HIV entry and either human CXCR4 or human CCR5 which are the co-receptors required for HIV entry as target cells for infection. […] This dose-range was applied to U373 cells and the pre-made pseudotyped virus added. The amount of luciferase signal produced after 3 days of culture was used to reflect the level of pseudotyped virus infection. An IC50, or the concentration of inhibitor required to reduce PSV infection by 50% from the infection containing no inhibitor was calculated. […] IC50 values were determined from a 10 point dose response curve using 3-4-fold serial dilution for each compound, which spans a concentration range >1000 fold.
These values are plotted against the molar compound concentrations using the standard four parameter logistic equation:
y=((V max*x^n)/(K^n+x^n)+Y2
Y2=minimum y n=slope factor
Vmax=maximum y x=compound concentration [M]

What is called IC50 is the concentration that inhibits the measured activity by half. On to `C#C[C@]1(CO)O[C@@H](n2cnc3c(N)nc(F)nc32)C[C@@H]1O` [EFdA, 4′-ethynyl-2-fluoro-2′-deoxyadenosine, reference compound], for which the IC50 in experiment [1] is 35.1 nM; in experiment [2], 6.5 nM.
On to `C#C[C@]1(CO)O[C@@H](n2cnc3c(N)nc(F)nc32)C[C@@H]1OC(=O)CCCCCCCCC(=O)O` [Example 1, 10-(((2R,3S,5R)-5-(6-amino-2-fluoro-9H-purin-9-yl)-2-ethynyl-2-(hydroxymethyl)tetrahydrofuran-3-yl)oxy)-10-oxodecanoic Acid], for which the IC50 in experiment [1] turned out to be 348 nM; in experiment [2] it was 78.4 nM.
On to `C#C[C@]1(CO)O[C@@H](n2cnc3c(N)nc(F)nc32)C[C@@H]1OC(=O)CCCCCCCCCCCCCCCCCCC(=O)O` [Example 2, 20-(((2R,3S,5R)-5-(6-amino-2-fluoro-9H-purin-9-yl)-2-ethynyl-2-(hydroxymethyl)tetrahydrofuran-3-yl)oxy)-20-oxoicosanoic Acid], for which the results for the IC50 in experiment [1] and in experiment [2] were 35.7 nM and 6.4 nM, respectively.
In the case of `C#C[C@]1(CO)O[C@@H](n2cnc3c(N)nc(F)nc32)C[C@@H]1OC(=O)CCCCCCCCCCCCC(=O)O` [Example 3, 14-(((2R,3S,5R)-5-(6-amino-2-fluoro-9H-purin-9-yl)-2-ethynyl-2-(hydroxymethyl)tetrahydrofuran-3-yl)oxy)-14-oxotetradecanoic Acid], the IC50 in experiment [1] was 24.4 nM; in experiment [2], 5.4 nM.
On the same counts, the results for `C#C[C@]1(CO)O[C@@H](n2cnc3c(N)nc(F)nc32)C[C@@H]1OC(=O)COCCOC` [Example 4, (2R,3S,5R)-5-(6-amino-2-fluoro-9H-purin-9-yl)-2-ethynyl-2-(hydroxymethyl)tetrahydrofuran-3-yl 2-(2-methoxyethoxy)acetate] are 25.9 nM and 3.8 nM.
On the same counts, the results for `C#C[C@]1(CO)O[C@@H](n2cnc3c(N)nc(F)nc32)C[C@@H]1OC(=O)COCCOCCOC` [Example 5, (2R,3S,5R)-5-(6-amino-2-fluoro-9H-purin-9-yl)-2-ethynyl-2-(hydroxymethyl)tetrahydrofuran-3-yl 2-(2-(2-methoxyethoxy)ethoxy)acetate] are 22.1 nM and 5.5 nM.
For the compound `C#C[C@]1(CO)O[C@@H](n2cnc3c(N)nc(F)nc32)C[C@@H]1OC(=O)CNC(=O)CCCCCC` [Example 6, (2R,3S,5R)-5-(6-amino-2-fluoro-9H-purin-9-yl)-2-ethynyl-2-(hydroxymethyl)tetrahydrofuran-3-yl heptanoylglycinate], the figures for the IC50 in experiment [1] and in experiment [2] were 11.4 nM and 2.2 nM, respectively.
The like results for `C#C[C@]1(CO)O[C@@H](n2cnc3c(N)nc(F)nc32)C[C@@H]1OC(=O)CCCC(=O)OC(COC(=O)CCCCCC)COC(=O)CCCCCC` [Example 7, (2R,3S,5R)-5-(6-amino-2-fluoro-9H-purin-9-yl)-2-ethynyl-2-(hydroxymethyl)tetrahydrofuran-3-yl (1,3-bis(heptanoyloxy)propan-2-yl) glutarate] were, in that order, 1190 nM and 232 nM.
Consider `C#C[C@]1(CO)O[C@@H](n2cnc3c(N)nc(F)nc32)C[C@@H]1OC(=O)CCCC(=O)OC(COC(=O)CCCCCCCCCCCCC)COC(=O)CCCCCCCCCCCCC` [Example 8, (2R,3S,5R)-5-(6-amino-2-fluoro-9H-purin-9-yl)-2-ethynyl-2-(hydroxymethyl)tetrahydrofuran-3-yl (1,3-bis(tetradecanoyloxy)propan-2-yl) glutarate], for which the results for the half-inhibitory concentration (IC50) in experiment [1] and in experiment [2] were 15000 nM and 1860 nM, respectively.
